Reference: patent publication US11534457B2, “Use of dextran sulfate” (priority 2017, dated 2022)

Test system: SAg system [PBMC and HUVEC+TCR ligands]
Experiment: BioMAP SAg system
Format: cell-based, Human
From the text: In this study LMW-DS was characterized by profiling in the BioMAP® Diversity PLUS panel. The BioMAP® panel consists of human primary cell-based systems designed to model different aspects of the human body in an in vitro format. The 12 systems in the BioMAP® Diversity PLUS panel (Table 32) allow test agent characterization in an unbiased way across a broad set of systems modeling various human disease states. The BioMA®P systems are constructed with one or more primary cell types from healthy human donors, with stimuli, such as cytokines or growth factors, added to capture relevant signaling networks that naturally occur in human tissue or pathological conditions. […]
Systems are derived from either single cell types or co-culture systems. […] Test agents prepared in either DMSO (small molecules; final concentration 0.1%) or PBS (biologics) are added at the indicated concentrations 1-hr before stimulation, and remain in culture for 24-hrs or as otherwise indicated (48-hrs, MyoF system; 72-hrs, BT system (soluble readouts); 168-hrs, BT system (secreted IgG)). […] Soluble factors from supernatants are quantified using either HTRF® detection, bead-based multiplex immunoassay or capture ELISA. Overt adverse effects of test agents on cell proliferation and viability (cytotoxicity) are detected by sulforhodamine B (SRB) staining, for adherent cells, and alamarBlue® reduction for cells in suspension. […]

## low molecular weight dextran sulfate [LMW-DS]
  Increased biomarker activity: IL-8
